Key:
[1] = Stability of endoxifen free base in polar organic solvents in the absence and presence of skin; assay type: physicochemical; conditions: for potency and stability in the solvents in the presence of skin: compared with potency in absence of skin after 2 days; for % Potency: relative to initiation of study
Method: (§1) HPLC-UV. Briefly, (E)- and (Z)-endoxifen were analyzed by High Performance Liquid Chromatography, HPLC (instrument: Agilent 1100) using a UV detector (Agilent). Chromatographic resolution was obtained using a Luna Phenyl Hexyl Column ([…]×150 mm) at a column temperature of 40° C. Samples were injected in an injection volume of 10 ul and run at a flow rate of 1.0 ml/min. The mobile phase system used consisted of: A) water with 10 mM ammonium formate (HCOONH4) with 0.03% formic acid and B) Methanol with 10 mM ammonium formate (HCOONH4).
The stability studies of endoxifen free base in various pure polar organic solvents/MPEs were performed as described below. Accelerated stability studies of (Z)-endoxifen free base in solvents/MPEs were performed over a course of 2 days at 45° C. in both the presence and the absence of human cadaver skin to assess the degree to which the (Z)-endoxifen conversion to (E)-endoxifen by isomerization and or chemical degradation of the endoxifen is accelerated upon contact with skin and skin components. (Z)-Endoxifen solutions at ˜80% of saturation concentrations were prepared in 1 ml batches in solvents as listed below in the Table 3. The potencies of (Z)-endoxifen and (E)-endoxifen were determined by HPLC-UV analysis as described above. Potency results are shown compared with potencies measured when the sample were stored at the initiation of stability study.

[2] = aqueous medium, 45° C., day 15, starting from 98%; cited from earlier work
[3] = Solubility of (Z) and (E)-endoxifen in polar organic solvents (HPLC-UV); assay type: physicochemical
Method: (Z)-endoxifen free base was synthesized as described above in Example 1. (Z)-endoxifen was solubilized in various solvents as provided in Table 1, and tested for physical and chemical stability in solution. The solutions were prepared in ˜1 ml batches typically for solubility and stability testing. The mixture was stirred overnight on a rotisserie at room temperature. The next, […], the suspension was filtered using a syringe filter (0.2 um pore size GHP membrane). The filtrated solution was then analyzed for the concentration of (Z)-endoxifen and (E)-endoxifen as using a validated HPLC-UV method as described below.
as §1
UV detection of (E)-endoxifen and (Z)-endoxifen isomers was performed at 243 nm with a run time of 30 minutes. Retention times for (E)-endoxifen and (Z)-endoxifen were 15.14 m and 16.25 m respectively. […]

[4] = in Diethyl Sebacate, 45° C. + skin (human cadaver), 2 days
[5] = in Diethylene glycol monoethyl ether, 45° C. + skin (human cadaver), 2 days
[6] = in Dimethyl Isosorbide, 45° C. + skin (human cadaver), 2 days
[7] = in Dipropylene Glycol, 45° C. + skin (human cadaver), 2 days
[8] = in Isopropyl Myristate, 45° C. + skin (human cadaver), 2 days
[9] = in PEG 300, 45° C. + skin (human cadaver), 2 days

Structure (SMILES)	potency and stability in the solvents in the presence of skin ([1]; 45° C.)	% Potency [1, 4]	% Potency [1, 5]	% Potency [1, 6]	% Potency [1, 7]	% Potency [1, 8]	% Potency [1, 9]	(Z)-endoxifen remaining after degradation [2]	stability of (Z)-endoxifen in polar organic solvents ([3]; polar organic solvents of Table 1)	% Potency ([1]; in Diisopropyl Adipate, 45° C. + skin (human cadaver), 2 days)	solubility in polar organic solvents/MPEs ([3]; DMSO, ethanol, diethylene monoethyl ether, and oleic acid)	stability of dissolved endoxifen ([1]; dissolved in dimethyl isosorbide and isopropyl myristate, 2 days, 45° C.)
CC/C(=C(/c1ccc(O)cc1)c1ccc(OCCNC)cc1)c1ccccc1 [(E)-endoxifen free base]	maintained potency and stability	99%	98%	16%	95%	68%	92%					
CC/C(=C(\c1ccc(O)cc1)c1ccc(OCCNC)cc1)c1ccccc1.Cl [(Z)-endoxifen HCl]								75%				
CC/C(=C(\c1ccc(O)cc1)c1ccc(OCCNC)cc1)c1ccccc1 [(Z)-endoxifen free base, (Z)-4-(1-(4-(2-(methylamino)ethoxy)phenyl)-2-phenylbut-1-enyl)phenol]	maintained potency and stability	94%	98%	17%	94%	63%	92%		surprisingly stable	99%		
CC/C(=C(\c1ccc(O)cc1)c1ccc(OCCNC)cc1)c1ccccc1 [Total Endoxifen free base, (E/Z)-4-[1-[4-[2-(Methylamino)ethoxy]phenyl]-2-phenyl-1-buten-1-yl]-phenol]											significantly soluble	poor stability

— patent publication US20240148675A1, “TOPICAL COMPOSITIONS AND METHODS FOR TREATMENT” (Atossa Therapeutics, Inc., priority 2017, published 2024)
